We go through one compound from patent US20220242870A1, “HETEROCYCLE-FUSED PYRIMIDINE DERIVATIVE AND USE THEREOF” (VORONOI Inc., priority 2019, published 2022).

A word on the IC50: it is the concentration at which inhibition is half-maximal. Higher therefore signals weaker potency in that assay. As a reminder, the GI50 is the concentration giving 50% growth inhibition.

In one assay the target is T1, human GST-HPK1 (1-346) (Homo sapiens, UniProt Q92918).
T1 construct: purified human GST-HPK1 (1-346, Signalchem) enzyme; purchased Signalchem
T1 sequence (Q92918 1-346): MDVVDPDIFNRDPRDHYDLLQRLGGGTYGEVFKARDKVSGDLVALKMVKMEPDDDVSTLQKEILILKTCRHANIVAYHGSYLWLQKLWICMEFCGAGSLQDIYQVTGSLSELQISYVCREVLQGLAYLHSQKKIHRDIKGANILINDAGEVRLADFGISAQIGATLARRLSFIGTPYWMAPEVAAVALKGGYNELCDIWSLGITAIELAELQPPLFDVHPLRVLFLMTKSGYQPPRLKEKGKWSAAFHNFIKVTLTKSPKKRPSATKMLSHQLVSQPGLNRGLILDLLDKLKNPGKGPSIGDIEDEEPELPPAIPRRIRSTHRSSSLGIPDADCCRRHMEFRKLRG
Nature of the assay: HPK1 enzyme inhibitory ability (ADP-Glo kinase assay). To be noted: human GST-HPK1 3 ng, ATP 3 uM, 25° C. 2 hours. It counts as biochemical. An outline of the steps: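 Human GST-HPK1(1-346), 3 ng, reacted with 3 uM ATP and specific substrate in 40 mM Tris-HCl pH 7.4, 20 mM MgCl2, 0.5 mg/mL BSA, 50 uM DTT for 2 h at 25° C. ADP-Glo luminescence read; IC50 (nM) relative to untreated solvent control.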

Another assay concerns MCF-7 cells. Nature of the assay: Breast cancer cell line proliferation inhibitory activity (CellTiter-Glo 2.0). It counts as cell-based. To be noted: Homo sapiens, MCF7, 120 hours. The essentials:
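MCF-7 cells exposed to a 12-point, 3-fold dilution series (final 0.00005–10 μM) for 120 h at 37 °C. Viability read by CellTiter-Glo 2.0 luminescence, expressed as percent of vehicle-treated cells. GI50 (nM) derived from the curves.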

Assay [1] concerns the target T2, ABL1(Q252H)-nonphosphorylated (Homo sapiens, UniProt P00519, Q252H).
T2 construct: purchased DiscoverX (scanMAX panel, contract assay)
Nature of the assay: scanMAX kinase assay panel. It counts as binding. Conditions: read-out: control percentage (% control). Here is the method:
(§1) The activities of the compounds according to the present invention to more diverse enzymes were evaluated. Specifically, it was decided that the enzyme selectivity of Example 74 selected from the compounds of Examples 1 to 129 was measured at the request of DiscoverX, and the experiment was conducted using a scanMAX™ kinase assay panel. At this time, as a drug to treat the enzyme, a solution prepared by dissolving in DMSO at a concentration of 1 μM was used, and the control percentage (% control) was determined by the method of Equation 1 below, and the results were shown in Table 2 below.
(§2) In Equation above, the positive control and negative control mean compounds showing control percentages of 0% and 100% as DMSO, respectively.

In a further assay the target is T3, CDK4-cyclinD3 (Homo sapiens, UniProt P11802).
T3 construct: purchased DiscoverX (scanMAX panel, contract assay)
T3 sequence (P11802 whole entry): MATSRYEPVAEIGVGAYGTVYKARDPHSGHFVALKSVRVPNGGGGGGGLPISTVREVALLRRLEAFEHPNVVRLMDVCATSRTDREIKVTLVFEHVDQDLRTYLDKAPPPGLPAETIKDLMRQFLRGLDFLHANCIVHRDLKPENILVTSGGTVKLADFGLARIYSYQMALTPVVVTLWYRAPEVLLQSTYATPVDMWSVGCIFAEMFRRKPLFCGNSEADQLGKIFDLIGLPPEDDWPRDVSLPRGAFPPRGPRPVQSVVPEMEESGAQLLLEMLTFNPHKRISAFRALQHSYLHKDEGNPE
T3 sequence (P30281 whole entry partner): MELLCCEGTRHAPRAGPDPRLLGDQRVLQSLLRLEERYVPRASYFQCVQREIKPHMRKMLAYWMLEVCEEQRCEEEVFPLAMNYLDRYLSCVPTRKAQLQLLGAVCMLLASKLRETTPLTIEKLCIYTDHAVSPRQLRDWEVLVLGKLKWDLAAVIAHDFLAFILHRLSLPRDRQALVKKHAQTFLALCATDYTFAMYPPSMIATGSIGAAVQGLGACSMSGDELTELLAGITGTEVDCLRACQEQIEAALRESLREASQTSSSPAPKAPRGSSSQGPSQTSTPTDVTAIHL
As to the kind of experiment: scanMAX kinase assay panel. It counts as binding. Conditions: read-out: control percentage (% control). How it is done:
as §1, §2

The subject of another assay is FLT3(ITD, F691L). Nature of the assay: scanMAX kinase assay panel. It counts as binding. Conditions: 1 μM. How it is done:
as §1, §2

The target in the next assay is T4, GRK4 (Homo sapiens, UniProt P32298).
T4 construct: purchased DiscoverX scanMAX kinase assay panel
Nature of the assay: scanMAX kinase assay panel. It counts as binding. Conditions: read-out: control percentage (% control). Here is the method: as §1, §2

Another assay deals with T5, INSR (Homo sapiens, UniProt P06213).
T5 construct: purchased DiscoverX scanMAX kinase assay panel
As to the kind of experiment: scanMAX kinase assay panel. Conditions: read-out: control percentage (% control). The format is binding. How it is done: as §1, §2

In assay [2] the target is T6, JAK3(JH1domain-catalytic) (Homo sapiens, UniProt P52333).
T6 construct: JAK3(JH1domain-catalytic); purchased DiscoverX scanMAX kinase assay panel
T6 sequence (P52333 822-1111 limits assumed): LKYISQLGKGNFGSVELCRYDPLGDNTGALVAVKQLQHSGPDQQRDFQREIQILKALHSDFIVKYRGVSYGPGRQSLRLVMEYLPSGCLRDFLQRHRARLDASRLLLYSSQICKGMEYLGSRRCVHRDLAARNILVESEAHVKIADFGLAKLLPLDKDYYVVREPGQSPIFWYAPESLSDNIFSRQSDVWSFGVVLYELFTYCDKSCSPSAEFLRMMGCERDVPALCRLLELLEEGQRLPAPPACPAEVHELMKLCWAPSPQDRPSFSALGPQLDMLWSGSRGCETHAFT
As to the kind of experiment: scanMAX kinase assay panel. The format is binding. Conditions: read-out: control percentage (% control). How it is done: as §1, §2

The next assay concerns the target T7, LCK (Homo sapiens, UniProt P06239).
T7 construct: purchased DiscoverX scanMAX kinase assay panel
Nature of the assay: scanMAX kinase assay panel. The format is binding. To be noted: read-out: control percentage (% control). Here is the method:
as §1, §2

The target in a further assay is T8, LOK (Homo sapiens, UniProt O94804).
T8 construct: purchased DiscoverX scanMAX kinase assay panel
Nature of the assay: scanMAX kinase assay panel. To be noted: read-out: control percentage (% control). The format is binding. Here is the method: as §1, §2

For the next assay, the target named is T9, MELK (Homo sapiens, UniProt Q14680).
T9 construct: purchased DiscoverX scanMAX kinase assay panel
T9 sequence (Q14680 whole entry): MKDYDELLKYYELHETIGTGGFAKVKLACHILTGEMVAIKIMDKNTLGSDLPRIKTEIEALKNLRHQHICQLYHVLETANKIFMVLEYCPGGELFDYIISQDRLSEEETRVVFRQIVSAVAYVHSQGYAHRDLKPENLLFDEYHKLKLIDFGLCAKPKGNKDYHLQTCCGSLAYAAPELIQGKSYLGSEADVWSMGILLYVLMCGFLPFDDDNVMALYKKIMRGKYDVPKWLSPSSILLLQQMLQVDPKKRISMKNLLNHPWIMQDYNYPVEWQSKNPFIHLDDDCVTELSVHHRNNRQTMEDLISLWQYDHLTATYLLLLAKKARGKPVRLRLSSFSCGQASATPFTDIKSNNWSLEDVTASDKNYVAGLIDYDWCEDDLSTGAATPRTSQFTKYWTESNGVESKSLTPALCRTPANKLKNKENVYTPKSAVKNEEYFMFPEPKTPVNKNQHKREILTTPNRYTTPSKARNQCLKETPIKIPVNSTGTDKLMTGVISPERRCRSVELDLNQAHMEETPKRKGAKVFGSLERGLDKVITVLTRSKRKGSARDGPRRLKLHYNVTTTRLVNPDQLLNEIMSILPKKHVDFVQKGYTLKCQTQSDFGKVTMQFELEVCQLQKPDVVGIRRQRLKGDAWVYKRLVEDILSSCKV
Nature of the assay: scanMAX kinase assay panel. It counts as binding. To be noted: read-out: control percentage (% control). How it is done: as §1, §2

The next assay deals with T10, NEK10 (Homo sapiens, UniProt Q6ZWH5).
T10 construct: purchased DiscoverX scanMAX kinase assay panel
T10 sequence (Q6ZWH5 whole entry): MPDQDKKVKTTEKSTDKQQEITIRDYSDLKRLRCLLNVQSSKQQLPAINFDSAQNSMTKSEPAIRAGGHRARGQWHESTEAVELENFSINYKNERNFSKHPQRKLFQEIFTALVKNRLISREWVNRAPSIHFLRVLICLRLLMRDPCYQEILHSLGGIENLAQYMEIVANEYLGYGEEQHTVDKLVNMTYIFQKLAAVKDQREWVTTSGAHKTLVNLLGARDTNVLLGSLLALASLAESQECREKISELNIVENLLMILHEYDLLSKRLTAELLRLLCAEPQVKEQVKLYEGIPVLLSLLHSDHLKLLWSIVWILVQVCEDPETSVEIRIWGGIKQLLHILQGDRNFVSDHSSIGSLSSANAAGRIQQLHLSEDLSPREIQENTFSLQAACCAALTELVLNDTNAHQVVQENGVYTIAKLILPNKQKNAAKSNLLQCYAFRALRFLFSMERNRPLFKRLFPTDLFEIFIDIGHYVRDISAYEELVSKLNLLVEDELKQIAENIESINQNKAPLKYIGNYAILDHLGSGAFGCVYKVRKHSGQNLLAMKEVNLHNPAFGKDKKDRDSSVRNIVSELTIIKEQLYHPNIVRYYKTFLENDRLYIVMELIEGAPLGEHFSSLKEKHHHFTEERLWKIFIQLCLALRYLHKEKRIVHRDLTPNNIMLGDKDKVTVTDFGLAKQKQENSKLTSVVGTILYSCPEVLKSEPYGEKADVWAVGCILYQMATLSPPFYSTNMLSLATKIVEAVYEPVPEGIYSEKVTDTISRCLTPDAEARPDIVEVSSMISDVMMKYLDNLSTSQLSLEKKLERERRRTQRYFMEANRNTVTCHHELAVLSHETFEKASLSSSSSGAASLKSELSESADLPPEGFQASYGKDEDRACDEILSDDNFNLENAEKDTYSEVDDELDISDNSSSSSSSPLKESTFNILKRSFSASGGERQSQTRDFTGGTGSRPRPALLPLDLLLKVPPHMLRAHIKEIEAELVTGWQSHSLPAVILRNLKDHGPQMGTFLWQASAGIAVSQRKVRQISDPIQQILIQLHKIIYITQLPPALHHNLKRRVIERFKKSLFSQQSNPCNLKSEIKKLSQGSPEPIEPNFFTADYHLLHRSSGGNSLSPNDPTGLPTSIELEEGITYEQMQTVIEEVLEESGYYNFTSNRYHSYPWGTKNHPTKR
As to the kind of experiment: scanMAX kinase assay panel. It counts as binding. Conditions: read-out: control percentage (% control). Here is the method: as §1, §2

The target of another assay is T11, RIOK1 (Homo sapiens, UniProt Q9BRS2).
T11 construct: purchased DiscoverX scanMAX kinase assay panel
T11 sequence (Q9BRS2 whole entry): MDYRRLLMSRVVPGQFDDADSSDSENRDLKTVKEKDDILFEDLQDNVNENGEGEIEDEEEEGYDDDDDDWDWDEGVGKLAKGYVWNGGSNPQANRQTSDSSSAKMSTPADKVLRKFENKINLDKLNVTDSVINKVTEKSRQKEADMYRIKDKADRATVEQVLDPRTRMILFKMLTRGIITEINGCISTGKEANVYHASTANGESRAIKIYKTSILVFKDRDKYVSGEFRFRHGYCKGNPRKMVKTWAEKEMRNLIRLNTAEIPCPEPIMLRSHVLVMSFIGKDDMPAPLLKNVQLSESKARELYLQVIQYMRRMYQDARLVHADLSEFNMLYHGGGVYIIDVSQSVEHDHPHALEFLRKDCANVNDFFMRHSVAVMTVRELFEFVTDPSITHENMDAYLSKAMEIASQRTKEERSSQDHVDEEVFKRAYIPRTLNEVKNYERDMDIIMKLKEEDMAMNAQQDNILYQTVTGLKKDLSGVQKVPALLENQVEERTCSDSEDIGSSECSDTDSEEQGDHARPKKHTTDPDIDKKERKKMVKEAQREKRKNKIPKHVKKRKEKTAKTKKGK
Nature of the assay: scanMAX kinase assay panel. The format is binding. To be noted: read-out: control percentage (% control). How it is done:
as §1, §2

The next assay addresses T12, SRPK3 (Homo sapiens, UniProt Q9UPE1).
T12 construct: purchased DiscoverX
As to the kind of experiment: scanMAX kinase assay panel. The format is binding. Conditions: read-out: control percentage (% control). Here is the method: as §1, §2

For the next assay, the target named is T13, STK16 (Homo sapiens, UniProt O75716).
T13 construct: purchased DiscoverX
T13 sequence (O75716 whole entry): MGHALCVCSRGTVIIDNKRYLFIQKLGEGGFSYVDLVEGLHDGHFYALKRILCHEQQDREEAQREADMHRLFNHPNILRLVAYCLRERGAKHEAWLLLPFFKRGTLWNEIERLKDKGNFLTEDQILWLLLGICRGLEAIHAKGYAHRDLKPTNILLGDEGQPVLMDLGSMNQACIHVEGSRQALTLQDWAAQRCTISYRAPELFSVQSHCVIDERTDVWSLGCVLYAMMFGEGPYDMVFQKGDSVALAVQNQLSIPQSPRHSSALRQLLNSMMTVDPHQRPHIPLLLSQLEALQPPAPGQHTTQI
As to the kind of experiment: scanMAX kinase assay panel. Conditions: read-out: control percentage (% control). It counts as binding. Here is the method:
as §1, §2

The target in the next assay is T14, ULK3 (Homo sapiens, UniProt Q6PHR2).
T14 construct: purchased DiscoverX
Nature of the assay: scanMAX kinase assay panel. The format is binding. To be noted: read-out: control percentage (% control). Here is the method:
as §1, §2

A further assay addresses CDK4-cyclinD1 (Homo sapiens, UniProt P11802). Nature of the assay: scanMAX kinase assay panel. The format is binding. Details: purchased DiscoverX (scanMAX panel, contract assay). Conditions: read-out: control percentage (% control). Here is the method: as §1, §2

T12 sequence (Q9UPE1 whole entry): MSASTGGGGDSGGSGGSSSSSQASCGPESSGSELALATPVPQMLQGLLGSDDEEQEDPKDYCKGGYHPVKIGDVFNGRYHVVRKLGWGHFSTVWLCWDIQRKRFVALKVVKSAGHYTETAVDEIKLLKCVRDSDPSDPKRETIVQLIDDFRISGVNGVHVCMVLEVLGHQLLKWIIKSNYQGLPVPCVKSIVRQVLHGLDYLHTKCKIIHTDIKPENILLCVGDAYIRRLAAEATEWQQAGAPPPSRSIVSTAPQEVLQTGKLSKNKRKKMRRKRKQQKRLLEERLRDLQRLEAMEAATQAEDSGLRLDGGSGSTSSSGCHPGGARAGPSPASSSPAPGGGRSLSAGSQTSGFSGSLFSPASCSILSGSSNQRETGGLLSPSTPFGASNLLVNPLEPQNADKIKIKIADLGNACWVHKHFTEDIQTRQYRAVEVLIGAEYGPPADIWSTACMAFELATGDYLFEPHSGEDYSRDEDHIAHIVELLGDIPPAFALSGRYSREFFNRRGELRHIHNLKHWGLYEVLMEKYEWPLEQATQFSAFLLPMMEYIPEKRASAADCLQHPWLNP
Sequence of CDK4-cyclinD1 (P11802 whole entry): as the sequence (P11802 whole entry) above
Sequence of CDK4-cyclinD1 (P24385 whole entry partner): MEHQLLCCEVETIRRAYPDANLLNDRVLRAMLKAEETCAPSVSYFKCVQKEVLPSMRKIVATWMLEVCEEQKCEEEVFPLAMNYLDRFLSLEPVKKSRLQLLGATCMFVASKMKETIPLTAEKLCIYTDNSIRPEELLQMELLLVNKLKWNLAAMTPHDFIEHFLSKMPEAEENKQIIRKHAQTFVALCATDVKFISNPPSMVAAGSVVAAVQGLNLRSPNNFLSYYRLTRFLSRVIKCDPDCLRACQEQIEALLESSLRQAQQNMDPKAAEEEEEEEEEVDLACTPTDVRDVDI
T7 sequence (P06239 whole entry): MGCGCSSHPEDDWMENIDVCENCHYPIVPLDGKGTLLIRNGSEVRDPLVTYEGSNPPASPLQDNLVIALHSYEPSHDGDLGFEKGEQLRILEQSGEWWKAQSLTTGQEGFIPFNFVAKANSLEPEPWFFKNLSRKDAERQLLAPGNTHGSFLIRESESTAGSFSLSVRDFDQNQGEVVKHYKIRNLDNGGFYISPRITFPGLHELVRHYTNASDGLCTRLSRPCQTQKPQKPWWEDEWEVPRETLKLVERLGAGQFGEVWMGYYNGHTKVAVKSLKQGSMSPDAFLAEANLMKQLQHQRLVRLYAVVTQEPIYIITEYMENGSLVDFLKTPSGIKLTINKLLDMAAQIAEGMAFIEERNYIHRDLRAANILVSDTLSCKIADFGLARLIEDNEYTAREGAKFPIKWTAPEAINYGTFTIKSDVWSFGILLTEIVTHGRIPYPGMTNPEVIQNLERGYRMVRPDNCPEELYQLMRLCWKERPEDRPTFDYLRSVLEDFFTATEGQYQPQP

`CN1CCN(c2ccc(Nc3nc(N4OCC[C@H]4c4ccccc4)c4cc[nH]c4n3)cc2)CC1` [Example 74, (S)-N-(4-(4-methylpiperazin-1-yl)phenyl)-4-(3-phenylisoxazolidin-2-yl)-7H-pyrrolo[2,3-d]pyrimidin-2-amine] gave a 50% inhibitory concentration (IC50) against human GST-HPK1 (1-346) of at least 250 nM. This compound also returned a GI50 in the assay on MCF-7 cells of over 500 nM. Further, the remaining binding at 1 µM in assay [1] was 24%; at CDK4-cyclinD3 it was 3%; on GRK4, 9.3%; at INSR, 19%; in assay [2] it was 0%; on LCK it was 12%. Besides, the remaining binding at 1 µM on LOK is 8.7%; at MELK, 2%; at NEK10 it was 0%; at RIOK1, 5.5%; on SRPK3, 13%; at STK16, 26%. Also, the remaining binding at 1 µM came out at 13% on ULK3 and 0.55% on CDK4-cyclinD1. The “control percentage (% control)” value in the assay on FLT3(ITD, F691L) came out at 0%.
